Data published in PubChem BioAssay (NCI).
Values joined by “and” are separate entries in the source; they are usually repeats but may differ in a detail not shown here. Identical values can stand only once.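 How tested: cells in 96-well plates exposed to compound for 48 hours at five concentrations. GI50 is the concentration that inhibits growth by half. TGI: concentration producing complete growth inhibition.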

Experiments:
Experiment in all cases: DTP human tumour cell line panel, 48 h
HOP-62 NSCLC = test system: HOP-62 NSCLC
NCI-H522 lung = test system: NCI-H522 lung
SNB-19 CNS = test system: SNB-19 CNS
RPMI-8226 leukemia = test system: RPMI-8226 leukemia
OVCAR-8 ovarian = test system: OVCAR-8 ovarian
HCT-15 colon = test system: HCT-15 colon
CCRF-CEM leukemia = test system: CCRF-CEM leukemia
HCT-116 colon = test system: HCT-116 colon
UACC-257 melanoma = test system: UACC-257 melanoma
ACHN renal = test system: ACHN renal

Structure (SMILES) | GI50 (HOP-62 NSCLC) [µM] | TGI (HOP-62 NSCLC) [µM] | GI50 (NCI-H522 lung) [µM] | TGI (NCI-H522 lung) [µM] | GI50 (SNB-19 CNS) [µM] | TGI (SNB-19 CNS) [µM] | GI50 (RPMI-8226 leukemia) [µM] | TGI (RPMI-8226 leukemia) [µM] | GI50 (OVCAR-8 ovarian) [µM] | GI50 (HCT-15 colon) | TGI (HCT-15 colon) [µM] | GI50 (CCRF-CEM leukemia) [µM] | TGI (CCRF-CEM leukemia) [µM] | GI50 (HCT-116 colon) [µM] | TGI (HCT-116 colon) [µM] | GI50 (UACC-257 melanoma) [µM] | TGI (UACC-257 melanoma) [µM] | GI50 (ACHN renal) [µM] | TGI (OVCAR-8 ovarian) [µM] | TGI (ACHN renal) [µM]
NC1CCC(Nc2nc(NCc3ccc(-c4ccco4)nc3)c3ncn(C4CCCC4)c3n2)CC1 (stereo not drawn) | 0.0238 | 0.0806 | 0.0164 | 0.0737 | 0.0275 | 12.5 | 0.0119 | 0.0895 | 0.0431 | 0.298 µM and 1.27 µM | 7.81 | 0.0362 | 1.88 | 0.0324 | 11.1 | 0.0277 | 0.088 | 0.242 |  | 
CN(C)c1ccc(-c2cc(-c3ccc(Nc4nc(Nc5ccc(Cl)cc5)nc(Nc5ccc(Cl)cc5)n4)cc3)no2)cc1 | 4.8 | 24.1 | 2.57 | 11.3 | 18.7 | > 100 | 2.6 | 17 | 5.91 | 5.2 µM | > 100 | 2.34 | 6.47 | 2.84 | 11.8 | 9.28 | 68.3 | 7.9 | 39 | > 100
COc1cc2nc(C)nc(N[C@H](C)c3cc(N)cc(C(F)(F)F)c3)c2cc1O[C@H]1CCOC1 | 11.1 | 25.6 | 12.8 | 29.3 | 12.7 | 27.4 | 11 | 47.9 | 15.5 | 12.6 µM | 27.6 | 13.5 | 49.3 | 11.4 | 29.6 | 16.1 | 30.5 | 11.6 | 42.8 | 23.9
O=C(CSC(=S)N1CCCCC1)Nc1nc2c(s1)CCCC2 |  | > 100 |  | 65.7 |  | > 100 |  | > 100 |  |  | > 100 |  | > 100 |  | 32.2 |  | 57.7 |  | > 100 | > 100
NC(CCc1nc(-c2ccc(Cl)cc2)cs1)C(=O)O (stereo not drawn) |  | > 100 |  | > 100 |  | > 100 |  | > 100 |  |  | > 100 |  | > 100 |  | > 100 |  | > 100 |  | > 100 | > 100
O=C(CCl)N1c2ccccc2Oc2ccc3ccccc3c21 | 1.81 | 3.25 | 0.614 | 1.9 | 1.86 | 3.44 | 0.768 | 3.12 | 0.78 |  |  | 0.163 | 3.39 | 0.358 | 1.29 | 1.53 | 3.16 | 1.37 | 2.28 | 2.82
COc1ccc(-c2cc(=O)c3ccc(O)cc3o2)c(OC)c1OC |  | > 100 |  | 82.8 |  | > 100 |  | > 100 |  |  |  |  | > 100 |  | > 100 |  | > 100 |  |  | > 100
O=C(N/C(=C\c1cc(Cl)ccc1Cl)c1nc2[nH]c(=S)[nH]c(=O)c2[nH]1)c1ccccc1 |  | > 100 |  | > 100 |  | > 100 |  | 42.7 |  |  | > 51 |  | 69.7 |  | 21.3 |  |  |  | > 71.8 | > 100
